Consider one molecule from patent publication US20160068527A1, “The Treatment of Inflammatory Disorders” (CRESSET BIOMOLECULAR DISCOVERY LTD., priority 2013, published 2016).

The test system of experiment [1] is human mast cells. Description: Release of Annexin-A1 from human mast cells (ELISA). The format is cell-based. To be noted: increasing concentrations of Nalidixic acid, conditioned medium, FIG. 3. The protocol:
Human cord derived mast cells were cultured using the methodology described in Example 1. Anx-A1 protein levels in conditioned medium were determined by ELISA. Briefly, 96-well flat-bottomed ELISA plates (Greiner, Gloucestershire, UK) were coated with 1 μg anti-Anx-A1 mAb 1B in bicarbonate buffer (pH 9.6) and incubated overnight at 4° C. After washing in the bicarbonate buffer, potentially uncoated sites were blocked with 100 μL of PBS containing 1% BSA for 1h at room temperature. Sample aliquots (100 μL) or Anx-A1 standard solutions (prepared in 0.1% Tween-20 in PBS; concentration ranging between 10 and 0.001 μg/mL) were added for 1h at 37° C. After extensive washing in PBS/Tween-20, 100 μL of a polyclonal rabbit anti-human Anx-A1 serum (Zymed, Invitrogen, Paisley, UK; diluted 1:1000 in PBS/Tween-20) was added (1h at 37° C.) prior to incubation with donkey anti-rabbit 1 gG conjugated to alkaline phosphatase (1:1000; Sigma). The colour was developed by addition of 100 μL p-nitrophenyl phosphate (1 mg/mL in bicarbonate buffer, pH 9.6). Absorbance was read at 405 nm (with a 620-nm reference filter) in a microplate reader (Titertek™, Vienna, Austria). Anx-A1 levels in the study samples were read against the standard curve and expressed as ng/ml.

Another experiment concerns the target phosphatase PP2A (Homo sapiens, UniProt P67775). Description: Inhibition of the phosphatase PP2A. Type of experiment: biochemical. To be noted: statement in summary, no method or data.
The test system of experiment [2] is human mast cells. The experiment can be described thus: Inhibition of Prostaglandin D2 release from human mast cells. Type of experiment: cell-based. To be noted: IgE challenged human cord derived mast cells, FIG. 2. The protocol:
Human cord derived mast cells were cultured using the methodology described in Example 1. A commercially-available enzyme immunoassay (Cayman Chemical, Michigan, USA) was used to detect and quantify PGD2 released in the supernatant. The assay was conducted following the manufacturer protocols. A standard curve ranging from 78-10,000 pg/ml PGD2 was prepared using the reagent provided and the optical density was then read within 60 min in a microplate reader (at 405 nm).

In experiment [3] the test system is human mast cells. The experiment can be described thus: Inhibition of histamine release from human mast cells. Type of experiment: cell-based. To be noted: IgE challenged human cord derived mast cells, 5 min incubation, FIG. 1. The protocol: Protocol: Human derived cord mast cells were cultured using the following method. Commercially available CD34^+ stem cells were cultured for […] in StemSpan (StemCell Technologies, Grenoble, France) serum-free medium supplemented with 100 ng/ml human SCF, 50 ng/ml IL-6 and 1 ng/ml IL-3, and 100 μg/ml penicillin/streptomycin (Peprotech, London, UK). After eight weeks, cells were cultured in StemSpan with 10% FCS. The cells were passaged into new medium every week. Cells were used for experiments between 11 and 18 weeks following confirmation by microscopic examination, c-kit and FcRε1 staining (by FACS), of mast cell morphology. For assessment of drug effects, Nalidixic Acid was incubated for 5 min with aliquots of 2×10^5 CDMCs (cord derived mast cells) cultured in 10% FCS medium. A commercially-available enzyme immunoassay was used to detect and quantify histamine released in the supernatant (SPI bio, Strasbourg, France). The assay was conducted following the manufacturer protocols. A standard curve ranging from 0.39-50 nM histamine was prepared using the reagent provided and the optical density was then read within 60 min in a microplate reader (at 405 nm). In some cases, the total cell content of histamine was established by freeze thawing of cells prior to challenge

The subject of experiment [4] is ovalbumin induced murine model of asthma. The experiment can be described thus: Ovalbumin induced murine model of asthma, BALF eosinophils. The format is in vivo, mouse. To be noted: female BALB/c mice, 0.3 mg/kg intranasal, OVA challenge. Here is the method: The effects of locally administered Nalidixic acid were studied in a mouse model of asthma. Female BALB/c mice, 8 animals per group, were sensitised to ovalbumin (OVA, 10 mg) by intra-peritoneal injection on days 1 and 14 of the study. On days 20, 21, 22 and 23 animals either received a challenge dose of ovalbumin (50 μg) to the lung given by intranasal administration or 50 μl of phosphate buffered saline (PBS, non-challenged group). Animals challenged with OVA also received either PBS vehicle or Nalidixic acid (0.3 mg/kg of body weight) given by intranasal administration for inhalation into the lung. This was administered 30 minutes prior to and 6 hours post each ovalbumin challenge on days 21 to 23 and in addition on day 24, the day between the last challenge and the terminal day of the experiment. Forty-eight hours after the final OVA challenge, mice were anaesthetised with a combination of ketamine hydrochloride (Narketan, 2 mg/mouse) and xylazine hydrochloride (Rompun, 0.07 mg/mice) and sacrificed by carotid exsanguination.
Bronchoalveolar lavage fluid (BAL) was obtained as follows. The trachea was cannulated. Phosphate Buffered Saline (PBS) was used as the lavage fluid, 3 volumes (0.4 ml; 0.3 ml; 0.3 ml; total 1 mL) were gently instilled and withdrawn on 3 consecutive occasions using a 1 ml BD syringe and then placed in an Eppendorf tube (˜1 ml). […]

Chain of phosphatase PP2A (P67775 whole entry): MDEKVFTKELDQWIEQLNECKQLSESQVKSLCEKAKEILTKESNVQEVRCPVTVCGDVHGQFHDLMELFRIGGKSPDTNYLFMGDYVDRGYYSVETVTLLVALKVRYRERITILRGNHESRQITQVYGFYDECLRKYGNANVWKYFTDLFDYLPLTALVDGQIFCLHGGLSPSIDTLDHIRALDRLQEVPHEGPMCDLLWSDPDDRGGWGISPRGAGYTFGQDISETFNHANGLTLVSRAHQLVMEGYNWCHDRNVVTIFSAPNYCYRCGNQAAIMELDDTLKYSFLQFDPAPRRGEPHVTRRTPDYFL

As for `CCn1cc(C(=O)O)c(=O)c2ccc(C)nc21` [Nalidixic acid], the “Annexin-A1 released from human mast cells” value in the experiment with human mast cells [1] was “increase”. Also, on phosphatase PP2A, the “inhibition of the phosphatase PP2A” value was “potent inhibitors”. The “inhibition of PGD2 release” value with human mast cells [2] is “dose related inhibition”. In addition, in the experiment with human mast cells [3], the “inhibition of histamine release” value is “dose related inhibition”. The “decrease in total BALF eosinophil counts compared with challenged vehicle treated animals” value in experiment [4] (p<0.05, FIG. 4) stood at 47%. Further, the “reduction of percentage of eosinophils of the total BALF cellular count versus vehicle treated group” value in experiment [4] (p<0.05, FIG. 5) is 44%.
